# Values joined by “and” are separate entries in the source; they are usually repeats but may differ in a detail not shown here. Identical values can stand only once.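 Exposure lasted 48 hours, with cells grown in 96-well plates and compounds tested at five concentrations. Here, GI50 denotes the concentration required for 50% inhibition of growth. TGI: total growth inhibition.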
# Legend:
# Test in all cases: DTP human tumour cell line panel, 48 h
# HOP-62 NSCLC = test system: HOP-62 NSCLC
# PC-3 prostate = test system: PC-3 prostate
# KM12 colon = test system: KM12 colon
# SK-MEL-2 melanoma = test system: SK-MEL-2 melanoma
# UACC-62 melanoma = test system: UACC-62 melanoma
# HT29 colon = test system: HT29 colon
# CCRF-CEM leukemia = test system: CCRF-CEM leukemia
# SNB-75 CNS = test system: SNB-75 CNS
# A549 NSCLC = test system: A549 NSCLC
# SW-620 colon = test system: SW-620 colon
Compound,GI50 (HOP-62 NSCLC),TGI (HOP-62 NSCLC),GI50 (PC-3 prostate),TGI (PC-3 prostate),GI50 (KM12 colon),TGI (KM12 colon),GI50 (SK-MEL-2 melanoma),TGI (SK-MEL-2 melanoma),GI50 (UACC-62 melanoma),TGI (UACC-62 melanoma),GI50 (HT29 colon),TGI (HT29 colon),GI50 (CCRF-CEM leukemia) [µM],TGI (CCRF-CEM leukemia) [µM],GI50 (SNB-75 CNS),TGI (SNB-75 CNS),GI50 (A549 NSCLC),TGI (A549 NSCLC),GI50 (SW-620 colon),TGI (SW-620 colon)
Fc1ccc(/C=N/n2c(-c3ccc(F)c(Cl)c3)nn(CNc3ccccc3C(F)(F)F)c2=S)cc1,> 100 µM,> 100 µM,37.4 µM,> 100 µM,29.3 µM,> 100 µM,46.6 µM,> 100 µM,39.2 µM,> 100 µM,94.4 µM,> 100 µM,51.6,> 100,> 100 µM,> 100 µM,52.8 µM,> 100 µM,86.2 µM,> 100 µM
O=C(O)c1ccc(C(=O)c2ccccc2)c(C(=O)O)c1,,> 100 µM,,> 100 µM,,> 100 µM,,> 100 µM,,> 100 µM,,> 100 µM,,> 100,,> 100 µM,,> 100 µM,,> 100 µM
CN1C(=O)N(C)C2C1NN=c1s/c(=C\c3ccc(C(F)(F)F)cc3)c(=O)n12 (centres undefined),1.31 µM,20.1 µM,0.677 µM,> 100 µM,0.705 µM,> 100 µM,2.59 µM,24.1 µM,0.662 µM,> 100 µM,0.44 µM,> 100 µM,0.955,> 100,2.11 µM,18.1 µM,1.45 µM,> 100 µM,0.659 µM,> 100 µM
CC(=O)OC12C=C(C)C(C(C)C1)C1C(=O)N(CCN3CCOCC3)C(=O)C12 (centres undefined),> 100 µM,> 100 µM,> 100 µM,> 100 µM,> 100 µM,> 100 µM,> 100 µM,> 100 µM,> 100 µM,> 100 µM,> 100 µM,> 100 µM,> 100,> 100,> 100 µM,> 100 µM,> 100 µM,> 100 µM,> 100 µM,> 100 µM
O=C1c2ccccc2-c2cc([N+](=O)[O-])c([N+](=O)[O-])cc21,,3.13 µM,,2.93 µM,,3.51 µM,,3.66 µM,,3.13 µM,,3.87 µM,,0.958,,3.39 µM,,6.23 µM,,> 21.1 µM
COc1cc2c(c(OC)c1OC)-c1ccc(SC)c(=O)cc1C(NC(=O)c1ccccc1)CC2 (centres undefined),,21.1 µM,,> 31.6 µM,,0.0357 µM,,< 0.215 µM,,36.7 µM,,1.12 µM,,> 68.1,,4.01 µM,,65.9 µM,,34.7 µM
COc1ccc2c(c1)N(CCO)C1=C(C(=O)OC1)C2c1cccc(F)c1 (centres undefined),,> 50 µM,0.232 µM,> 50 µM,0.255 µM,> 50 µM,0.801 µM,> 36.2 µM,0.203 µM,> 50 µM,0.23 µM,> 19.8 µM,0.43,> 50,0.186 µM,13.6 µM,0.746 µM,> 50 µM,0.236 µM,> 50 µM
COc1ccc2cc1Oc1ccc(cc1)C[C@H]1c3c(cc4c(c3Oc3cc5c(cc3OC)CCN(C)[C@@H]5C2)OCO4)CCN1C,2.98 µM,9.6 µM,2.08 µM,11.4 µM,4.83 µM,13.2 µM,4.13 µM,11.2 µM,1.81 µM,6.16 µM,0.237 µM,2.56 µM,1.53,7.77,5.27 µM,11.4 µM,2.03 µM,7.89 µM,2.11 µM,8.47 µM
Cc1ccc(/C=N\NC(=O)c2[nH]c3ccc(F)cc3c2-c2ccccc2)cc1,0.0422 µM,5.88 µM,0.0345 µM,20.6 µM,0.0282 µM,0.898 µM,0.0488 µM,24.5 µM,0.0516 µM,> 58.6 µM,0.0291 µM,11.6 µM,0.0275,> 100,0.0382 µM,16.6 µM,0.0344 µM,> 100 µM,0.0428 µM,> 100 µM
C=CC(=O)Nc1cccc(Oc2nc(Nc3ccc(N4CCN(C)CC4)cc3)nc3ccsc23)c1,3.71 µM and 3.73 µM,> 10 µM and 15.7 µM,2.36 µM and 2.87 µM,8.25 µM and 7.33 µM,3.36 µM and 2.49 µM,> 10 µM and 6.77 µM,2.85 µM and 2.49 µM,8.48 µM and 5 µM,1.59 µM and 1.74 µM,3.17 µM and 3.67 µM,1.91 µM and 2.72 µM,4.05 µM and 5.81 µM,2.6,9.88,1.54 µM and 2.1 µM,> 10 µM and 10.5 µM,3.47 µM and 3.71 µM,> 10 µM and 17.6 µM,2.07 µM and 1.92 µM,4.61 µM and 4.07 µM

# — PubChem BioAssay (NCI)
